Assay results from patent US20070066628A1 (Wyeth, priority 2005, published 2007).
Values joined by “and” are separate entries in the source; they are usually repeats but may differ in a detail not shown here. Identical values can stand only once.

Assays:
[1] = tested on: rat uterine decidualization; assay: Rat decidualization assay; details: s.c.; for Estimated EC50 for uterine weight (decidual response): ovariectomized female Sprague-Dawley rats, once daily for seven days, individual studies; for Estimated average EC50 for uterine weight (decidual response): ovariectomized rats, average of dose-response curves
Protocol: (2) Rat Decidualization Assay
(a) Objective: This procedure is used to evaluate the effect of progestins and antiprogestins on rat uterine decidualization and compares the relative potencies of various test compounds.
(b) Methods • A. Reagents • Test compounds are dissolved in 100% ethanol and mixed with corn oil (vehicle). Stock solutions of the test compounds in oil (the Mazola™ oil) are then prepared by heating (˜80° C.) the mixture to evaporate ethanol. Test compounds are subsequently diluted with 100% corn oil or 10% ethanol in corn oil prior to the treatment of animals. […] Ovariectomy is performed at least 10 days prior to treatment to reduce circulating sex steroids. Animals are housed under 12 hours light/dark cycle and given standard rat chow and water ad libitum. • C. […] Test compounds in 0.2 mL vehicle are administered by subcutaneous injection in the nape of the neck or by gavage using 0.5 mL. The animals are treated once daily for seven days. […] In all studies, a control group receiving vehicle is included. Determination of dose-response curves is carried out using doses with half log increases (e.g. 0.1, 0.3, 1.0, 3.0 mg/kg). • E. Decidual Induction • Approximately 24 hours after the third injection, decidualization is induced in one of the uterine horns by scratching the antimesometrial luminal epithelium with a blunt 21 G needle. The contralateral horn is not scratched and serves as an unstimulated control. Approximately 24 hours following the final treatment, rats are sacrificed by CO2 asphyxiation and body weight measured. Uteri are removed and trimmed of fat. […] The Huber M-estimator is used to down weight the outlying transformed observations for both dose-response curve fitting and one-way analysis of variance. JMP software (SAS Institute, Inc.) is used for both one-way ANOVA and non-linear dose-response analyses. • G. Reference Compounds:
All progestin reference compounds are run in full dose-response curves and the EC50 for uterine wet weight is calculated.

PR = target: T1, PR (Homo sapiens, UniProt P06401); assay: T47D cell alkaline phosphatase assay; type: cell-based; details: T47D cells, agonist mode; read-out: Alk. Phos. EC50
T1 construct: Frozen T47D cells were thawed in a 37° C. water bath and diluted to 280,000 cells/mL in culture medium; endogenous in cells; host or cells: T47D cells
T1 sequence (P06401 1-933): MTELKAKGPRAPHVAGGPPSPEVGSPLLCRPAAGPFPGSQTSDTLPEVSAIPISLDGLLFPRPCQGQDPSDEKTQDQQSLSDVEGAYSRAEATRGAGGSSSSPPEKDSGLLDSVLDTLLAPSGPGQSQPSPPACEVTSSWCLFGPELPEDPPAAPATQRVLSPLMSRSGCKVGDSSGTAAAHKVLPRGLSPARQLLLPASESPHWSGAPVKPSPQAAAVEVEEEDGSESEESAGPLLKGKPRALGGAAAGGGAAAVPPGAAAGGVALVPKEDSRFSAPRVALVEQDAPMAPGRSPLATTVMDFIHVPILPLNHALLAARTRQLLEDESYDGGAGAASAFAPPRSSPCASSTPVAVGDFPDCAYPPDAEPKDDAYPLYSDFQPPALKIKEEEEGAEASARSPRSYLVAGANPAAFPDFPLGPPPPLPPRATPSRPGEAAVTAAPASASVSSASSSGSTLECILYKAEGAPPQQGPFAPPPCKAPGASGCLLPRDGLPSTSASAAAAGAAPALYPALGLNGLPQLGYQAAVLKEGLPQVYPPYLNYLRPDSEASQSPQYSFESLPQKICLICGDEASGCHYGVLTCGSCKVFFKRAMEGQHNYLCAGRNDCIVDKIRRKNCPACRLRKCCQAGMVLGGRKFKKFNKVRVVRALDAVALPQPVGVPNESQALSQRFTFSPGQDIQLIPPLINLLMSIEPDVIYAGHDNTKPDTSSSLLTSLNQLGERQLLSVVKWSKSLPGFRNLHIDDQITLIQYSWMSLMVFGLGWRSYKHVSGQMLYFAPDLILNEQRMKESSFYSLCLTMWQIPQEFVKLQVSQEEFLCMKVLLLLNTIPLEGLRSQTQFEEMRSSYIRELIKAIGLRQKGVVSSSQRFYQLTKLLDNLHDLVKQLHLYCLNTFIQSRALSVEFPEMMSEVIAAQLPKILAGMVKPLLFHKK
Protocol: (4) T47D Cell Alkaline Phosphatase Assay
(a) Purpose: To identify progestins or antiprogestins by determining a compound's effect on alkaline phosphatase activity in T47D cells.
(b) Methods: • A. Reagents • (i) Culture medium: DMEM:F12 (1:1) (GIBCO, BRL) supplemented with 5% (v/v) charcoal stripped fetal bovine serum (not heat-inactivated), 100 U/mL penicillin, […] streptomycin, and 2 mM GlutaMax (GIBCO, BRL). • (ii) Alkaline Phosphatase Assay Buffer • I. 0.1 M Tris-HCl, pH 9.8, containing 0.2% the Triton™ X-100 reagent • II. 0.1 M Tris-HCl, pH 9.8 containing 4 mM p-nitrophenyl phosphate (Sigma). • B. Cell Culture and Treatment • Frozen T47D cells were thawed in a 37° C. water bath and diluted to 280,000 cells/mL in culture medium. To each well in a 96-well plate (Falcon, Becton Dickinson Labware), 180 μL of diluted cell suspension was added. Twenty μL of reference or test compounds diluted in the culture medium was then added to each well. […] The cells were incubated at 37° C. in a 5% CO2/humidified atmosphere for 24 hours. • Note: For high throughput screening, one concentration of each compound was tested at 0.3 mg/mL. […]
Square root-transformed data were used for analysis of variance and nonlinear dose response curve fitting for both agonist and antagonist modes. […] EC50 or IC50 values were calculated from the retransformed values. […]

SMILES: C#C[C@]1(O)CC[C@H]2[C@@H]3CCC4=CC(=O)CC[C@@H]4[C@H]3CC[C@@]21CC [Levonorgestrel]
- Estimated EC50 for uterine weight (decidual response) [1]: 0.08 mg/kg, s.c. and 0.12 mg/kg, s.c. and 0.09 mg/kg, s.c. (2×)
- Estimated average EC50 for uterine weight (decidual response) [1]: 0.10 mg/kg, s.c.

SMILES: CC(=O)[C@H]1CC[C@H]2[C@@H]3CCC4=CC(=O)CC[C@]4(C)[C@H]3CC[C@]12C [Progesterone]
- Estimated EC50 for uterine weight (decidual response) [1]: 5.50 mg/kg, s.c.
- Estimated average EC50 for uterine weight (decidual response) [1]: 5.62 mg/kg, s.c.

SMILES: CC(=O)O[C@]1(C(C)=O)CC[C@H]2[C@@H]3C[C@H](C)C4=CC(=O)CC[C@]4(C)[C@H]3CC[C@@]21C [MPA, medroxyprogesterone acetate]
- Estimated EC50 for uterine weight (decidual response) [1]: 0.42 mg/kg, s.c. and 0.39 mg/kg, s.c. (2×)

SMILES: C#C[C@]1(O)CC[C@H]2[C@@H]3CCC4=CC(=O)CC[C@@H]4[C@H]3C(=C)C[C@@]21CC [3-Ketodesogestrel]
- Estimated average EC50 for uterine weight (decidual response) [1]: 0.10 mg/kg, s.c.

SMILES: Cn1c(C#N)ccc1-c1ccc2c(c1)C(C)(C)CC2O (stereo not shown) [Example 3, 5-(1-hydroxy-3,3-dimethyl-2,3-dihydro-1H-inden-5-yl)-1-methyl-1H-pyrrole-2-carbonitrile]
- EC50 (PR): 18.6 nM
